Results from US4299813A, “Assay kit and method” (priority 1979, dated 1981).
Several values for one entry are separate records, joined by “and”; a condition that tells them apart may be missing. Equal values may be shown once.

Test system: muscarinic cholinergic receptor
Test: Muscarinic cholinergic radioreceptor assay ([3H] QNB competition, serum antidepressant levels)
Type: binding, rat (Sprague-Dawley)
[1] = Standard C, 50 μM imipramine, Table III
[2] = Standard D, 10 μM imipramine, Table III
[3] = Standard E, 2 μM imipramine, Table III
[4] = Standard C, 5.0 μM amitriptyline, Table II
[5] = Standard D, 1.0 μM amitriptyline, Table II
[6] = Standard E, 0.2 μM amitriptyline, Table II

## CN(C)CCCN1c2ccccc2CCc2ccccc21 [imipramine]
Sample 1, serum, Table III
  CPM: 7105 CPM and 7146 CPM and 6773 CPM
  Logit (B/Bo): 0.180 and 0.187 and 0.125
Sample 2, serum, Table III
  CPM: 9642 CPM and 8636 CPM and 8069 CPM
[1]
  CPM: 4922 CPM and 4908 CPM and 4803 CPM
  Logit (B/Bo): -0.171 and -0.173 and -0.191
[2]
  CPM: 8706 CPM and 8704 CPM and 8799 CPM
  Logit (B/Bo): 0.473 and 0.493
[3]
  CPM: 10370 CPM and 10617 CPM and 10843 CPM
  Logit (B/Bo): 0.957 and 1.079 and 1.224

## CN(C)CCC=C1c2ccccc2CCc2ccccc21 [amitriptyline]
Sample 1, serum, Table II
  CPM: 2537 CPM and 2867 CPM
  Logit (B/Bo): -0.644 and -0.562
Sample 2, serum, Table II
  CPM: 7735 CPM and 7778 CPM and 7386 CPM
  Logit (B/Bo): 0.288 and 0.295 and 0.227
Standard A, 10^-5 M amitriptyline (background), Table II
  CPM: 533 CPM and 529 CPM and 479 CPM
Standard A, 10^-5 M amitriptyline (background), imipramine curve, Table III
  CPM: 533 CPM and 529 CPM and 479 CPM
[4]
  CPM: 1914 CPM and 1790 CPM and 1679 CPM
  Logit (B/Bo): -0.834 and -0.879 and -0.924
[5]
  CPM: 5285 CPM and 5442 CPM and 5239 CPM
  Logit (B/Bo): -0.112 and -0.087 and -0.119
[6]
  CPM: 9240 CPM and 9692 CPM
  Logit (B/Bo): 0.595 and 0.716
Standard F, 0.04 μM amitriptyline, Table II
  CPM: 11235 CPM
